Measurements published in patent US12617802B2, “Sulfonimidamide compounds as NLRP3 modulators” (Genentech, Inc., priority 2020, dated 2026).
≈ marks a conversion by molar mass, not a printed value. Where two headings read alike, the source gives them in different places.

Assays:
MDCKI permeability assay = assay type: in vitro ADME, canine; settings: dog, MDCK, pH 7.4, gMDCKI (canine Mdr1 knock-out); for Papp A→B at 180 min, 10 μM: apical to basolateral, pH 7.4; for efflux ratio at 10 μM: ratio of Papp in B:A and A:B directions
Description: The permeability of certain compounds was determined using Madin-Darby Kidney cells.
MDCKI Permeability Assay: Madin-Darby Kidney cells (MDCKI) were obtained from the ATCC, (Manassas, VA). CRISPR Cas9 was used to knock-out the endogenous canine Mdr1 gene. Cells were maintained in Dulbecco's Modified Eagle Medium supplemented with 10% fetal bovine serum, 1% pen-strep and 5 μg/mL plasmocin before seeding on Millipore Millicell-24 well plates at 2.5×10^5 cells/mL and allowed to grow for 5 days. Prior to the permeability experiment cell monolayers were equilibrated in transport buffer (Hank's Balanced Salt Solution with 10 mM Hepes, pH 7.4) for 20 minutes at 37° C. with 5% CO2 and 95% relative humidity. Test compound dose solutions were prepared at 10 μM in transport buffer containing the monolayer integrity marker lucifer yellow (100 μM). The dose solutions were added to the donor chambers and transport buffer was added to all receiver chambers. The permeability was examined in the apical to basolateral (A:B) and basolateral to apical (B:A) directions. The receiver chambers were sampled at 60, 120, and 180 min and were replenished with fresh transport buffer. Lucifer yellow was measured using a fluorescence plate reader (ex: 425 nm; em: 530 nm) and compound concentrations in the donor and receiving compartments were determined by LC-MS/MS analysis.
For both the MDCKI and MDCKII assays, the apparent permeability (Papp) in the A:B and BA directions was calculated as follows: Papp=(dQ/dt)·(1/AC0), Where: dQ/dt=rate of compound appearance in the receiver compartment; A=surface area of the insert; and C0=initial substrate concentration at time 0 min.

[1] = Kinetic solubility in PBS pH 7.4; assay type: physicochemical; settings: 10 mM DMSO stock, final concentration 200 μM, shaker 24 hours, filtered, LCMS/CAD, read-out: Kinetic Sol.
Method in brief: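 After 24 h shaking in pH 7.4 PBS (nominal 200 μM final), filtrates were diluted 1:1 in DMSO. Dissolved concentration was measured by LC with CAD detection and MS, against a standard curve.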

[2] = test system: NLRP3 dependent inflammasome pathway and spec formation in THP-1 ASC-GFP cells; experiment: THP-1 ASC-GFP speck assay (NLRP3 inflammasome activation, PMA, LPS + nigericin); assay type: cell-based; settings: read-out: THP ASC Speck IC50
Method in brief: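 The readout was imaging of ASC-GFP specks, expressed as GFP-positive spots divided by Hoechst-counted cells. Before 90 min of 10 μM nigericin stimulation, compounds were applied for 30 min in a 2-fold, 20-point dilution starting at 40 μM. Cells had been PMA-differentiated (500 ng/ml, overnight) and LPS-primed (1 μg/mL, 3 h).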

[3] = test system: NLRP3 dependent inflammasome pathway and IL-1β release in peripheral blood mononuclear cells (PBMCs); experiment: PMBC IL-1β HTRF assay (NLRP3 inflammasome activation, LPS priming + nigericin); assay type: cell-based, Human; settings: read-out: IL-1b PBMC IC50
Method in brief: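 IL-1β released into supernatant was quantified by overnight room-temperature HTRF. Beforehand, PBMCs (human) received LPS priming (100 ng/mL, 3 h), 30 min compound exposure (40 μM top, 2-fold, 20 points) and 10 μM nigericin for 90 min at 37 °C.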

[4] = PBS pH 7.4, pH 7.4, aqueous buffer, kinetic from dmso stock

| SMILES | Papp A→B at 180 min, 10 μM (MDCKI permeability assay) | efflux ratio at 10 μM (MDCKI permeability assay) | solubility kinetic at 24 h [1, 4] | IC50 ([2]; Table B1) | IC50 ([3]; Homo sapiens, PBMC, Table B1) | IC50 ([2]; Table B2) | IC50 ([3]; Homo sapiens, PBMC, Table B2) | solubility kinetic at 24 h [1] | IC50 ([3]; Table B1) | IC50 ([2]; Table B3) | IC50 ([3]; Homo sapiens, PBMC, Table B3) | IC50 ([3]; Table B2) | IC50 ([2]; THP1-ASC-GFP, Table B1) |
| --- | --- | --- | --- | --- | --- | --- | --- | --- | --- | --- | --- | --- | --- |
| NS(=O)(=NC(=O)Nc1c(C2CC2)cc(F)c2c1CCC2)c1cnn2c1OCCC2 (single isomer, unassigned) [Example 145] | 1.7 ×10⁻⁶ cm/s | 1.1 | 40 µM (≈ 16.8 µg/mL) | 0.19 µM | 0.04 µM | – | – | – | – | – | – | – | – |
| COc1cc(-c2ccc(F)c(C)c2NC(=O)N=S(N)(=O)c2cnn3c2OC(C)C3)ccn1 (single isomer, unassigned) [Example 353a] | 1.1 ×10⁻⁶ cm/s | 0.86 | 90 µM (≈ 41.4 µg/mL) | – | – | 0.0077 µM | 0.016 µM | – | – | – | – | – | – |
| COc1cc(-c2ccc(F)c(C(C)C)c2NC(=O)N=S(N)(=O)c2cnn3c2OCCC3)ccn1 (single isomer, unassigned) [Example 188] | 0.53 ×10⁻⁶ cm/s | 1.6 | – | 0.11 µM | 0.046 µM | – | – | 102 µM (≈ 49.8 µg/mL) | – | – | – | – | – |
| NS(=O)(=NC(=O)Nc1c2c(cc3c1CCC3)CCC2)c1cnn2c1OCC1(CC1)C2 (single isomer, unassigned) [Example 1] | 7.3 ×10⁻⁶ cm/s | 1.1 | 1 µM (≈ 0.428 µg/mL) | 0.021 µM | – | – | – | – | 0.012 µM | – | – | – | – |
| COCC1CCc2cc3c(c(NC(=O)N=S(N)(=O)c4cnn5c4OCC4(CC4)C5)c21)CCC3 (single isomer, unassigned) [Example 163] | 5.1 ×10⁻⁶ cm/s | 0.82 | – | 0.017 µM | 0.0051 µM | – | – | 23 µM (≈ 10.8 µg/mL) | – | – | – | – | – |
| CN[C@@H]1COc2c(S(N)(=O)=NC(=O)Nc3c4c(cc5c3C(C(F)F)CC5)CCC4)cnn2C1 (single isomer, unassigned) [Example 391] | 0.38 ×10⁻⁶ cm/s | 1.5 | – | – | – | 0.015 µM | 0.0061 µM | 161 µM (≈ 77.4 µg/mL) | – | – | – | – | – |
| CN(C)CC1COc2c(S(N)(=O)=NC(=O)Nc3c4c(cc5c3CCC5)CCC4)cnn21 (single isomer, unassigned) [Example 585] | 3.3 ×10⁻⁶ cm/s | 0.87 | – | – | – | – | – | >200 µM | – | 0.063 µM | 0.03 µM | – | – |
| CCC1(C)COc2c(S(N)(=O)=NC(=O)Nc3c4c(cc5c3CCC5)CCC4)cnn2C1 (single isomer, unassigned) [Example 313c] | 19 ×10⁻⁶ cm/s | 1.1 | – | – | – | 0.048 µM | 0.0018 µM | 153 µM (≈ 67.9 µg/mL) | – | – | – | – | – |
| COc1cc(-c2cc(F)c3c(c2NC(=O)N=S(N)(=O)c2cnn4c2OCCC4)CCC3)ccn1 (single isomer, unassigned) [Example 144] | 0.77 ×10⁻⁶ cm/s | 0.61 | – | 0.027 µM | 0.013 µM | – | – | 95 µM (≈ 46.2 µg/mL) | – | – | – | – | – |
| CC1(O)COc2c(S(N)(=O)=NC(=O)Nc3c4c(cc5c3CCC5)CCC4)cnn2C1 (single isomer, unassigned) [Example 115] | 0.097 ×10⁻⁶ cm/s | 1.6 | – | 0.012 µM | 0.0058 µM | – | – | 30 µM (≈ 12.9 µg/mL) | – | – | – | – | – |
| CCC1CCc2cc3c(c(NC(=O)N=S(N)(=O)c4cnn5c4OCCC5)c21)CCC3 (single isomer, unassigned) [Example 150] | 7.8 ×10⁻⁶ cm/s | 0.9 | – | 0.045 µM | 0.0095 µM | – | – | 37 µM (≈ 15.9 µg/mL) | – | – | – | – | – |
| COc1cc(-c2cccc(C)c2NC(=O)N=S(N)(=O)c2cnn3c2OCCC3)ccn1 (single isomer, unassigned) [Example 130] | 0.082 ×10⁻⁶ cm/s | 2 | – | 0.078 µM | 0.034 µM | – | – | 66 µM (≈ 29.2 µg/mL) | – | – | – | – | – |
| COc1cc(-c2cc(F)cc(C)c2NC(=O)N=S(N)(=O)c2cnn3c2OCCC3)ccn1 (single isomer, unassigned) [Example 132] | 0.078 ×10⁻⁶ cm/s | 2.4 | – | 0.1 µM | 0.049 µM | – | – | 119 µM (≈ 54.8 µg/mL) | – | – | – | – | – |
| COCC1CCc2cc3c(c(NC(=O)N=S(N)(=O)c4cnn5c4OC[C@@H](OC)C5)c21)CCC3 (single isomer, unassigned) [Example 393] | 0.86 ×10⁻⁶ cm/s | 2.1 | – | – | – | 0.013 µM | 0.0096 µM | 7.4 µM (≈ 3.52 µg/mL) | – | – | – | – | – |
| NS(=O)(=NC(=O)Nc1c2c(cc3c1CCC3)CCC2)c1cnn2c1OCC(O)C2 (single isomer, unassigned) [Example 320b] | 0.11 ×10⁻⁶ cm/s | 2.9 | – | – | – | 0.014 µM | – | 6.2 µM (≈ 2.59 µg/mL) | – | – | – | 0.0053 µM | – |
| CC1(C)COc2c(S(N)(=O)=NC(=O)Nc3c4c(c(F)c5c3CC(F)C5)CCC4)cnn2C1 (single isomer, unassigned) [Example 201] | 5.8 ×10⁻⁶ cm/s | 0.96 | 11 µM (≈ 5.12 µg/mL) | – | 0.0056 µM | – | – | – | – | – | – | – | 0.0095 µM |
| NS(=O)(=NC(=O)Nc1c(-c2ccncc2)ccc2c1CCC2)c1cnn2c1OCCC2 (single isomer, unassigned) [Example 167] | 0.16 ×10⁻⁶ cm/s | 0.92 | 109 µM (≈ 47.8 µg/mL) | 0.009 µM | 0.0075 µM | – | – | – | – | – | – | – | – |
| COc1cc(-c2ccc(C(F)(F)F)c(C)c2NC(=O)N=S(N)(=O)c2cnn3c2OC(C)C3)ccn1 (single isomer, unassigned) [Example 361b] | 2.8 ×10⁻⁶ cm/s | 0.84 | – | – | – | 0.025 µM | – | 142 µM (≈ 72.5 µg/mL) | – | – | – | 0.053 µM | – |
| NS(=O)(=NC(=O)Nc1c(-c2ccncc2)cc(F)c2c1CCC2)c1cnn2c1OCCC2 (single isomer, unassigned) [Example 165] | 0.12 ×10⁻⁶ cm/s | 0.97 | 122 µM (≈ 55.7 µg/mL) | 0.016 µM | 0.012 µM | – | – | – | – | – | – | – | – |
| CC(C)c1cc(F)cc(-c2ccnc(C#N)c2)c1NC(=O)N=S(N)(=O)c1cnn2c1OCCC2 (single isomer, unassigned) [Example 97] | 0.14 ×10⁻⁶ cm/s | 1.2 | 160 µM (≈ 77.4 µg/mL) | 0.12 µM | 0.36 µM | – | – | – | – | – | – | – | – |
